Assay results from patent US12006527B2, “Coryneform bacterium transformant and method for producing 2-phenylethanol using same” (Research Institute of Innovative Technology for the Earth, priority 2018, dated 2024).
“Also recorded” adds a separate entry of the source.

Assays:
Assay in all cases: Growth inhibition by 2-phenylethanol in aerobic culture (OD610)
Type in all cases: cell-based
Pseudomonas putida S12 = conditions: aerobic shaking culture 30° C., LB(+glucose)-liquid medium
Description: Tests regarding growth inhibition by 2-phenylethanol in aerobic culture were carried out on Corynebacterium glutamicum, Escherichia coli, Pseudomonas putida, and Kluyveromyces marxianus. Pseudomonas putida S12 was applied to an LB-agar plate [containing 1% polypeptone, 0.5% yeast extract, 0.5% sodium chloride, and 1.5% agar], and was left to stand at 30° C. for 15 hours in a dark place. One platinum loop of Pseudomonas putida S12 grown on the plate described above was inoculated in a test tube having therein 10 ml of an LB(+glucose)-liquid medium [containing 1% polypeptone, 0.5% yeast extract, 0.5% sodium chloride, and 0.4% glucose], and was subjected to aerobic shaking culture at 33° C. for 13 hours. The Pseudomonas putida S12 strain grown under the above-described conditions was inoculated in 100 ml of the LB(+glucose)-liquid medium so that the initial bacterial cell concentration OD610=0.05 was achieved. Simultaneously, 2-phenylethanol was added so that the final concentrations thereof became 0, 10, 20, 30, 40, and 50 mM, and aerobic shaking culture was carried out at 30° C. The growth of bacterial cells was determined by measuring the absorbance of OD610.

[1] = test system: Corynebacterium glutamicum R; conditions: aerobic shaking culture 33° C., A-liquid medium
Description: Tests regarding growth inhibition by 2-phenylethanol in aerobic culture were carried out on Corynebacterium glutamicum, Escherichia coli, Pseudomonas putida, and Kluyveromyces marxianus. Corynebacterium glutamicum R was applied to an A-agar plate (the same as that described above), and was left to stand in a dark place at 33° C. for 15 hours. One platinum loop of Corynebacterium glutamicum R grown on the plate described above was inoculated in a test tube having therein 10 ml of the A-liquid medium, and aerobic shaking culture was carried out at 33° C. for 13 hours. Corynebacterium glutamicum R grown under the above-described conditions was inoculated in 100 ml of the A-liquid medium (the same as that described above) so that the initial bacterial cell concentration OD610=0.05 was achieved. Simultaneously, 2-phenylethanol was added so that the final concentrations thereof became 0, 10, 20, 30, 40, and 50 mM, and aerobic shaking culture was carried out at 33° C. The growth of bacterial cells was determined by measuring the absorbance of OD610.

Escherichia coli MG1655 = conditions: aerobic shaking culture, LB-liquid medium
Description: Tests regarding growth inhibition by 2-phenylethanol in aerobic culture were carried out on Corynebacterium glutamicum, Escherichia coli, Pseudomonas putida, and Kluyveromyces marxianus. Escherichia coli MG1655 was applied to an LB-agar plate [containing 1% polypeptone, 0.5% yeast extract, 0.5% sodium chloride, and 1.5% agar], and was left to stand at 37° C. for 15 hours in a dark place. One platinum loop of Escherichia coli MG1655 grown on the plate described above was inoculated in a test tube having therein 10 ml of an LB-liquid medium [containing 1% polypeptone, 0.5% yeast extract, and 0.5% sodium chloride], and was subjected to aerobic shaking culture at 37° C. for 13 hours. Escherichia coli MG1655 grown under the above-described conditions was inoculated in 100 ml of the LB-liquid medium so that the initial bacterial cell concentration OD610=0.05 was achieved. Simultaneously, 2-phenylethanol was added so that the final concentrations thereof became 0, 10, 20, 30, 40, and 50 mM, and aerobic shaking culture was carried out at 33° C. The growth of bacterial cells was determined by measuring the absorbance of OD610.

Kluyveromyces marxianus = conditions: aerobic shaking culture 40° C., YPD-liquid medium
Description: Tests regarding growth inhibition by 2-phenylethanol in aerobic culture were carried out on Corynebacterium glutamicum, Escherichia coli, Pseudomonas putida, and Kluyveromyces marxianus. Further, Kluyveromyces marxianus was applied to a YPD-agar plate [containing 2% polypeptone, 1% yeast extract, 2% glucose, and 1.5% agar], and was left to stand at 30° C. for 15 hours in a dark place. One platinum loop of Kluyveromyces marxianus grown on the plate described above was inoculated in a test tube having therein 10 ml of a YPD-liquid medium [containing 2% polypeptone, 1% yeast extract, and 2% glucose], and was subjected to aerobic shaking culture at 40° C. for 13 hours. Kluyveromyces marxianus grown under the above-described conditions was inoculated in 100 ml of the YPD-liquid medium so that the initial bacterial cell concentration OD610=0.05 was achieved. Simultaneously, 2-phenylethanol was added so that the final concentrations thereof became 0, 10, 20, 30, 40, and 50 mM, and aerobic shaking culture was carried out at 40° C. The growth of bacterial cells was determined by measuring the absorbance of OD610.

OCCc1ccccc1 [2-phenylethanol]
growth of Pseudomonas putida (Pseudomonas putida S12; 20 mM 2-phenylethanol): strongly inhibited | growth of Pseudomonas putida (Pseudomonas putida S12; 30 mM 2-phenylethanol): substantially completely inhibited | growth of Corynebacterium glutamicum ([1]; 20 mM 2-phenylethanol): not influenced at all | growth of Corynebacterium glutamicum ([1]; 30 mM 2-phenylethanol): delayed, but was improved 24 hours after | growth of Escherichia coli (Escherichia coli MG1655; 20 mM 2-phenylethanol): significantly inhibited; also recorded: strongly inhibited | growth of Escherichia coli (Escherichia coli MG1655; 30 mM 2-phenylethanol): substantially completely inhibited | growth of Kluyveromyces marxianus (Kluyveromyces marxianus; 20 mM 2-phenylethanol): strongly inhibited | growth of Kluyveromyces marxianus (Kluyveromyces marxianus; 30 mM 2-phenylethanol): substantially completely inhibited
